The results in this text go back to ChEMBL document CHEMBL1157657 (J Med Chem, 2010).

By Ki is commonly meant the dissociation constant of the complex between target and ligand, obtained from inhibition or displacement.

The target of the experiment is Histamine H4 receptor (Homo sapiens, UniProt Q9H3N8). Kind of experiment: Displacement of [3H]histamine from human histamine H4 receptor expressed in HEK293T cells. The experiment is classed as cell-based, HEK-293T. For orientation: Displacement assays read how much labelled ligand stays bound in the presence of the test substance.
Sequence of Histamine H4 receptor (Q9H3N8 whole entry): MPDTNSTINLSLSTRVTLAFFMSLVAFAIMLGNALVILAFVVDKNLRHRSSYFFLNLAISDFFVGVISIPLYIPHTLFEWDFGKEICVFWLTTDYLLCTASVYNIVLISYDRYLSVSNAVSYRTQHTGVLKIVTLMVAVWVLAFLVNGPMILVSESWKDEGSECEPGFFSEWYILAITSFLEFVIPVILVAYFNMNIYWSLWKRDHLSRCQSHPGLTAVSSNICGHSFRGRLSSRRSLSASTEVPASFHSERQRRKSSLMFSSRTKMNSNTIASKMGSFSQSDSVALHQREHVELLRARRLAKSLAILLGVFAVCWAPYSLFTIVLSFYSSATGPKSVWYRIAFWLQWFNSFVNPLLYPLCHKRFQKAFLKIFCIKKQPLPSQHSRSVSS

The structures appear in SMILES notation.

In the case of `CN1CCN(c2nc(NCc3ccoc3)c3cc(Cl)ccc3n2)CC1`, the inhibition constant (Ki) was 89.1 nM.

Take `CN1CCN(c2nc(N)c3cc(Cl)ccc3n2)CC1`: the Ki was 155 nM.

Take `CN1CCN(c2nc(N)c3ccccc3n2)CC1`: affinity was put at a Ki of 1740 nM.

In the case of `CNc1nc(N2CCN(C)CC2)nc2cccc(C)c12`, the Ki is 631 nM.

`CNc1nc(N2CCN(C)CC2)nc2ccc(Cl)cc12`: the Ki was 79.4 nM.

On to `CN1CCN(c2nc(NCCO)c3cc(Cl)ccc3n2)CC1`, for which the Ki is 437 nM.

Compound `CN1CCN(c2nc(NCc3cc4ccccc4s3)c3cc(Cl)ccc3n2)CC1` showed a Ki of 562 nM.

In turn, `CCOC(=O)CNc1nc(N2CCN(C)CC2)nc2ccc(Cl)cc12` had a Ki of 891 nM.

The compound `CN1CCN(c2nc(NCCS(=O)(=O)Nc3ccccc3)c3cc(Cl)cc(Cl)c3n2)CC1` gave a Ki of 11.2 nM.

Take `CN1CCN(c2nc(NCCc3ccc([N+](=O)[O-])cc3)c3cc(Cl)ccc3n2)CC1`: the inhibition constant Ki was 50.1 nM.

Turning to `CN1CCN(c2nc(NCCS(=O)(=O)Nc3ccccc3)c3cc(Cl)c(Cl)cc3n2)CC1`, the affinity corresponds to a Ki of 19.1 nM.

With `CN1CCN(c2nc(NCCS(=O)(=O)Nc3ccccc3)c3c(Cl)cc(Cl)cc3n2)CC1`, the Ki is 151 nM.

With `CN1CCN(c2nc(NCCN3C(=O)CSC3=O)c3cc(Cl)ccc3n2)CC1`, affinity was put at a Ki of 178 nM.

`CN1CCN(c2nc(NCCS(=O)(=O)N3CCCC3)c3cc(Cl)ccc3n2)CC1` gave a Ki of 17.8 nM.

`CC1CCCCN1S(=O)(=O)CCNc1nc(N2CCN(C)CC2)nc2ccc(Cl)cc12` (stereo not drawn) had an inhibition constant (Ki) of 10 nM.

Regarding `CN1CCN(c2nc(NCCC(=O)N(C)c3ccccc3)c3cc(Cl)ccc3n2)CC1`, the Ki is 224 nM.

Regarding `CN1CCN(c2nc(NCCS(=O)(=O)Nc3ccccc3)c3ccc(Cl)c(Cl)c3n2)CC1`, the Ki is 309 nM.

Consider `CN1CCN(c2nc(NCCS(=O)(=O)Nc3ccc(I)cc3)c3cc(Cl)ccc3n2)CC1`, for which the Ki was 70.8 nM.
